# Assay results as given in patent US10010576B2, “Method of treatment” (Hexima Limited, priority 2014, dated 2018).
# Key:
# [1] = Penetration through human nails (nail adapter, wetted cotton bud receptor, RP-HPLC); assay type: in vitro ADME
# Procedure: Penetration of NaD1 through human nails was measured according to the method of Hui et al. (2002) J Pharm Sci 91(1):189-195. Human toenails were obtained from ScienceCare (USA) and washed with phosphate buffered saline (details, PBS) before being placed on a kimwipe that had been soaked in PBS for 3 h to rehydrate the nail. […]
# The cotton bud in contact with the underside of the nail was removed after 24 h and every 24 h following. Protein that had passed through the nail was recovered from the cotton bud by washing twice with 500 μL of 0.1% v/v trifluoroacetic acid. Recovered protein was quantified using RP-HPLC.
# [2] = test system: T. interdigitale; test: Antifungal growth inhibition assay in 96 well microtitre plates (A595); assay type: cell-based, Trichophyton interdigitale
# Procedure: (§1) The inhibitory effects of the plant defensins on the growth of Trichophyton rubrum, T. interdigitale, Microsporum fulvum and C. albicans (obtained from the National Mycology Reference Centre, South Australia Pathology at the Women's and Children's Hospital, Adelaide, Australia) are measured essentially as described by Broekaert et al. (1990) FEMS Microbiol Lett 69:55-59. Spores of T. rubrum, T. interdigitale and M. fulvum are isolated from sporulating fungus growing on 1⁄2 strength Sabouraud dextrose agar (SDA). Spores were removed from the plates by the addition of 1⁄2 strength potato dextrose broth (PDB). C. albicans cells are grown in Yeast Peptone Broth (YPD) for 16 h. Spore and cell concentrations are measured using a hemocytometer. Antifungal assays are conducted in 96 well microtitre plates essentially as herein described. Wells are loaded with 20 μm L of filter sterilized (0.22 μm syringe filter, Millipore) defensin (10× stock for each final concentration) or water and 80 μm L of 5×10^4 spores/mL (T. rubrum, T. interdigitale, M. fulvum) or 5,000 cells/mL (C. albicans) in 1⁄2 strength PDB. The plates are incubated at 30° C. Fungal growth is assayed by measuring optical density at 595 nm ([…]) using a microtitre plate reader (SpectraMax Pro M2; Molecular Devices. Growth is allowed to proceed until the optical density (OD) of the fungus in the absence of any test defensin reached an OD of 0.2. Each test is performed in duplicate.
# [3] = test system: clinical isolates of T. rubrum; test: Cell survival assay for clinical isolates of T. rubrum (plating after incubation); assay type: cell-based, Trichophyton rubrum; conditions: incubated with 100 µg/mL HXL008 for 72 h, plated on Sabouraud dextrose agar, 5 days at 30° C.
# Procedure: After incubation for 72 h, the media from wells containing clinical isolates of T. rubrum incubated with 100 […] HXL008 was plated onto fresh Sabouraud dextrose agar. Plates were incubated at 30° C. for 5 days to allow colonies to develop before being photographed.
# [4] = test system: Trichophyton rubrum; test: Inhibition of the growth of Trichophyton rubrum over 28 days; assay type: cell-based
# Procedure: The inhibitory effect of HXL008 on the growth of Trichophyton rubrum (obtained from the National Mycology Reference Centre, South Australia Pathology at the Women's and Children's Hospital, Adelaide, Australia) was monitored over 28 days.
# Spores of T. rubrum, are isolated from sporulating fungus growing on ½ strength Sabouraud dextrose agar. Spores are removed from the plates by the addition of ½ strength potato dextrose broth (PDB). Spore and cell concentrations are measured using a hemocytometer.
# Spores were diluted to a concentration of 5×10^4 spores/mL in ½ PBD (2 mL) containing 0, 10 or 50 μg/mL HXL008. Cultures are incubated at 30 C without shaking. After 24 h, 100 μL of each culture is extracted and plated onto ½ SDA plates. An additional 100 uL of ½ PDB is then added containing either 0, 20 or 100 μg of HXL008. SDA plates are then incubated at 30 C for 5 days. This process is repeated every 24 h for 28 days. After 15 days, the culture containing no HXL008 becomes too thick to pipette and is no longer used in the assay.
# [5] = test system: C. albicans; test: Antifungal growth inhibition assay in 96 well microtitre plates (A595); assay type: cell-based, Candida albicans
# Procedure: as §1
# [6] = test system: Escherichia coli; test: Inhibition of the growth of Escherichia coli; assay type: cell-based; conditions: 0.1625 μM to 10 μM, 18 hours at 37° C., OD595
# Procedure: A single E. coli colony was used to inoculate 5 ml of Luria-Bertani media and grown overnight at 37° C. The following day, the optical density of the culture was measured and the E. coli diluted to an optical density at 600 nm (OD600) of 0.01 in Mueller-Hinton Broth. Diluted E. coli were added to 96-well plates with defensins at concentrations of 10 μM, 5 μM, 2.5 μM, 1.25 μM, 0.625 μM, 0.3125 μM or 0.1625 μM. Plates were read at OD595 to obtain time zero data points. Plates were incubated at 37° C. for 18 hours before reading again at OD595 to assess the amount of E. coli growth.
# [7] = test system: Trichophyton rubrum; test: Antifungal growth inhibition assay in 96 well microtitre plates (A595); assay type: cell-based
# Procedure: as §1
# [8] = test system: Microsporum fulvum; test: as above; assay type: cell-based
# Procedure: as §1
# [9] = test system: Human monocytic lymphoma (U937) cells; assay type: cell-based
# Procedure: Human monocytic lymphoma (U937) cells are cultured in RPMI-1640 medium. All culture media are supplemented with 5-10% v/v fetal calf serum, 100 U/ml of penicillin, and 100 μg/ml of streptomycin. Cell lines are cultured at 37° C. in a humidified atmosphere containing 5% v/v CO2. Adherent cell lines are detached from the flask by adding a mixture containing 0.25% v/v trypsin and […] EDTA. A flow cytometry-based propidium iodide (PI) uptake assay is performed to analyze the ability of plant defensins to permeabilize U937 cells (essentially as described in Poon et al, 2014). Briefly, cells are suspended to 1×10^6 cells/ml in 0.1% v/v BSA/RPMI-1640 and incubated with plant defensins (10 μM) at 37° C. for 30 min Samples are added to PBS containing a final concentration of 1 μg/ml PI and placed on ice. Samples are then analyzed immediately using the BD FACSCanto II Flow Cytometer and BD FACSDiva software v6.1.1. The resultant flow cytometry data is analyzed using FlowJo software v8.8.6. Cells are gated appropriately based on forward scatter and side scatter and cell permeabilization is defined by PI-positive staining.
# [10] = test system: Trichophyton rubrum, T. interdigitale, Microsporum fulvum and C. albicans; test: Inhibition assays, summary across the range of fungal pathogens; assay type: cell-based; conditions: summary of Table 3
# Procedure: as §1
substance,measurement,setting,value
"HXL008: Class I plant defensin from Picramnia pentandra, SEQ ID NO:1 (KVCTKPSKFFKGLCGTDGACTTACRKEGLHSGYCQLKGFLNSVCVCRKHC; HXL008 Picramnia pentandra)",Nail penetration,[1],able to penetrate nails faster and more effectively than the active ingredients of current topical onychomycosis therapies
same,IC50 against T. interdigitale,[2],3.5 µg/mL
same,Surviving colonies on agar plates,[3],1-3 colonies
same,Visible growth of T. rubrum in culture,"[4]; 10 μg/mL or 50 μg/mL, over the duration of the assay (28 days)",did not display any visible growth
same,T. rubrum cells killed,"[4]; 50 μg/mL, within 24 h",more than 80%
same,T. rubrum cells dead,[4]; after 20 days of treatment,more than 99.5%
same,Surviving colonies per plate,"[4]; after 20 days of treatment, 100 μL of culture plated",≤ 1 colony
same,IC50 against C. albicans,[5],20 µg/mL
same,Inhibition of growth of E. coli,[6],did not inhibit growth of E. coli at the concentrations tested
same,IC50 against T. rubrum,[7],3 µg/mL
same,IC50 against M. fulvum,[8],7 µg/mL
same,Cells permeabilized (PI-positive),[9],less than 2%
same,Antifungal activity across the range of fungal pathogens,[10],the most effective plant defensins across the range of fungal pathogens
"NaD1: Solanaceous Class II plant defensin from Nicotiana alata, SEQ ID NO:18 (RECKTESNTFPGICITKPPCRKACISEKFTDGHCSKILRRCLCTKPC; NaD1 Nicotiana alata)",Nail penetration,[1],able to penetrate nails faster and more effectively than the active ingredients of current topical onychomycosis therapies
same,IC50 against T. interdigitale,[2],10 µg/mL
same,IC50 against C. albicans,[5],20 µg/mL
same,Inhibition of growth of E. coli,[6],did not inhibit growth of E. coli at the concentrations tested
same,IC50 against T. rubrum,[7],8 µg/mL
same,IC50 against M. fulvum,[8],5.3 µg/mL
same,Cells permeabilized (PI-positive),[9],33%
"HXL012: Class I plant defensin from Amaranthus retroflexus, SEQ ID NO:10 (RMCKAPSKLFRGMCGIRDSNCDSVCRAEGMAAGDCHGLRRRCICSRPC; HXL012 Amaranthus retroflexus)",Nail penetration,[1],did not penetrate the nail
same,IC50 against T. interdigitale,[2],2 µg/mL
same,IC50 against C. albicans,[5],42 µg/mL
same,IC50 against T. rubrum,[7],2 µg/mL
same,IC50 against M. fulvum,[8],18 µg/mL
same,Cells permeabilized (PI-positive),[9],less than 2%
same,Antifungal activity across the range of fungal pathogens,[10],intermediate activity
"HXL004: Class I plant defensin from Nicotiana benthamiana, SEQ ID NO:7 (Table 1) (RTCESQSHRFKGLCFSRSNCASVCHTEGFNGGHCRGFRRRCFCTRHC; HXL004 Nicotiana benthamiana)",Nail penetration,[1],able to penetrate nails faster and more effectively than the active ingredients of current topical onychomycosis therapies
same,IC50 against T. interdigitale,[2],19 µg/mL
same,IC50 against C. albicans,[5],20 µg/mL
same,Inhibition of growth of E. coli,[6],inhibited the growth of E. coli in a concentration dependent manner
same,IC50 against T. rubrum,[7],27.5 µg/mL
same,IC50 against M. fulvum,[8],12 µg/mL
same,Cells permeabilized (PI-positive),[9],13%
same,Antifungal activity across the range of fungal pathogens,[10],intermediate activity
"LL37: human antimicrobial peptide used as a control (LLGDFFRKSKEKIGKEFKRIVQRIKDFLRNLVPRTES; Antibacterial peptide LL-37; UniProt P49913 134-170, looked up) [reference compound]",Inhibition of growth of E. coli,[6],inhibited the growth of E. coli in a concentration dependent manner
